Data reported in ChEMBL document CHEMBL4507326, “Data for DCP probe TP-030-2” (2021).
pIC50, pKi: −log10 of the molar value.

How the values were obtained:
[1] = biological target: Mitogen-activated protein kinase kinase kinase 12 (Homo sapiens, UniProt Q12852); test: DLK(M312CGY1) Takeda global kinase panel
[2] = biological target: Tyrosine-protein kinase Fer (Homo sapiens, UniProt P16591); test: Fer(FER1LGY1) Takeda global kinase panel
[3] = biological target: Ephrin type-A receptor 6 (Homo sapiens, UniProt Q9UF33); test: EphA6(EPA6LGI5) Takeda global kinase panel
[4] = biological target: Muscarinic acetylcholine receptor M2 (Homo sapiens) (UniProt P08172); conditions: Compound concentration 10.0 uM
[5] = biological target: Tyrosine-protein kinase Fgr (Homo sapiens, UniProt P09769); test: Fgr(FGR1LGF1) Takeda global kinase panel
[6] = biological target: Voltage-dependent N-type calcium channel subunit alpha-1B (Homo sapiens) (UniProt Q00975); test: Inhibition of Calcium Channel N-Type at 10 µM in the Eurofins-Panlabs radioligand binding assay (Eurofins_assay_216000); conditions: Rattus norvegicus; Compound concentration 10.0 uM
[7] = biological target: Cyclin-dependent kinase 16 (Homo sapiens, UniProt Q00536); test: PCTAIRE1(CD16SGS1) Takeda global kinase panel
[8] = biological target: Mitogen-activated protein kinase 9 (Homo sapiens, UniProt P45984); test: JNK2(MAP9LGF1) Takeda global kinase panel
[9] = biological target: Beta-2 adrenergic receptor (Homo sapiens) (UniProt P07550); conditions: Compound concentration 10.0 uM
[10] = biological target: Sigma intracellular receptor 2 (Homo sapiens, UniProt Q5BJF2); test: GPCRScan assay: inhibition of Sigma 2; set-up: radioligand conc. used [nm] 5.0, parental cells HEKT
[11] = biological target: Alpha-1B adrenergic receptor (Homo sapiens) (UniProt P35368); test: Adrenergic alpha1B Eurofins-Panlabs radioligand binding assay; set-up: ligand concentration 0.2 nM; conditions: Compound concentration 10.0 uM
[12] = organism: Rattus norvegicus; test: Inhibition of Thyroid Hormone at 10 µM in the Eurofins-Panlabs radioligand binding assay (Eurofins_assay_285900); type: protein assay; conditions: Compound concentration 10.0 uM
[13] = biological target: ATP-sensitive inward rectifier potassium channel 11 (Cricetulus griseus) (UniProt A0A3L7HHE1); test: Inhibition of Potassium Channel [KATP] at 10 µM in the Eurofins-Panlabs radioligand binding assay (Eurofins_assay_265600); conditions: Cricetinae; Compound concentration 10.0 uM
[14] = biological target: GABA-A receptor; anion channel (Rattus norvegicus) (UniProt O09028+P15431+P18506+P18508+P19969+P20236+P23574+P23576+P28471+P28473+P30191+P62813+P63079+P63138+Q91ZM7+Q9ES14); test: Inhibition of GABAA, Muscimol, Central at 10 µM in the Eurofins-Panlabs radioligand binding assay (Eurofins_assay_226500); type: protein-complex assay; conditions: Compound concentration 10.0 uM
[15] = biological target: Neuropeptide Y receptor type 1 (Homo sapiens) (UniProt P25929); test: Inhibition of Neuropeptide Y Y1 at 10 µM in the Eurofins-Panlabs radioligand binding assay (Eurofins_assay_257010); conditions: Compound concentration 10.0 uM
[16] = biological target: Adenosine receptor A1 (Homo sapiens) (UniProt P30542); conditions: Compound concentration 10.0 uM
[17] = biological target: 5-hydroxytryptamine receptor 6 (Homo sapiens) (UniProt P50406); conditions: Compound concentration 10.0 uM
[18] = biological target: Serine/threonine-protein kinase SIK3 (Homo sapiens, UniProt Q9Y2K2); test: QSK(SIK3LGP1) Takeda global kinase panel
[19] = biological target: cAMP-dependent protein kinase catalytic subunit beta (Homo sapiens, UniProt P22694); test: PKAbeta(PRCBLGF1) Takeda global kinase panel
[20] = biological target: Serine/threonine-protein kinase 4 (Homo sapiens, UniProt Q13043); test: MST1(STK4LGF1) Takeda global kinase panel
[21] = biological target: SRSF protein kinase 1 (Homo sapiens, UniProt Q96SB4); test: SRPK1(SRP1IHRL) Takeda global kinase panel
[22] = biological target: voltage-gated sodium channel, site 2 (Rattus norvegicus, UniProt F1LQQ7+O08562+O88420+O88457+P04774+P04775+P08104+P15389+P15390+Q62968); test: Inhibition of Sodium Channel, Site 2 at 10 µM in the Eurofins-Panlabs radioligand binding assay (Eurofins_assay_279510); type: protein assay; set-up: ligand concentration 5 nM, non-specific ligand with concentration 100 µM Veratridine, incubation time 60 min, incubation temperature 37 °C; conditions: male, Wistar, rat whole brain (except cerebellum) membranes, probe [3H] Batrachotoxinin, compound concentration 10 uM
[23] = biological target: Serine/threonine-protein kinase TAO2 (Homo sapiens, UniProt Q9UL54); test: TAO2(TAO2LGF1) Takeda global kinase panel
[24] = biological target: Beta-1 adrenergic receptor (Homo sapiens) (UniProt P08588); conditions: Compound concentration 10.0 uM
[25] = biological target: Ephrin type-B receptor 2 (Homo sapiens, UniProt P29323); test: EphB2(EPB2LGY1) Takeda global kinase panel
[26] = organism: Rattus norvegicus; conditions: Compound concentration 10.0 uM
[27] = biological target: Alpha-1A adrenergic receptor (Homo sapiens) (UniProt P35348); test: Inhibition of Adrenergic alpha1A at compound concentration of 10.0 uM in the Eurofins-Panlabs radioligand binding assay (Eurofins_assay_203110); set-up: ligand concentration 0.25 nM; conditions: Rattus norvegicus; Compound concentration 10.0 uM
[28] = biological target: Serine/threonine-protein kinase Nek3 (Homo sapiens, UniProt P51956); test: Nek3(NEK3LGRI) Takeda global kinase panel
[29] = biological target: Inhibitor of nuclear factor kappa-B kinase subunit alpha (Homo sapiens, UniProt O15111); test: IKKalpha(CHUKLGP1) Takeda global kinase panel
[30] = biological target: Serine/threonine-protein kinase NLK (Homo sapiens, UniProt Q9UBE8); test: NLK(NLK1LGI5) Takeda global kinase panel
[31] = biological target: Serine/threonine-protein kinase tousled-like 1 (Homo sapiens, UniProt Q9UKI8); test: TLK1(TLK1LGP1) Takeda global kinase panel
[32] = biological target: Serine/threonine-protein kinase ULK1 (Homo sapiens, UniProt O75385); test: ULK1(ULK1LGF1) Takeda global kinase panel
[33] = biological target: Mitotic checkpoint serine/threonine-protein kinase BUB1 (Homo sapiens, UniProt O43683); test: Bub1(BUB1LGRL) Takeda global kinase panel
[34] = biological target: Receptor-type tyrosine-protein kinase FLT3 (Homo sapiens, UniProt P36888); test: FLT3(FLT3MGE1) Takeda global kinase panel
[35] = biological target: Testis-specific serine/threonine-protein kinase 1 (Homo sapiens, UniProt Q9BXA7); test: TSSK1(TS1BLGP1) Takeda global kinase panel
[36] = biological target: Serine/threonine-protein kinase ULK2 (Homo sapiens, UniProt Q8IYT8); test: ULK2(ULK2LGY1) Takeda global kinase panel
[37] = biological target: Protein kinase C delta type (Homo sapiens, UniProt Q05655); test: PKCdelta(PRKDPFP1) Takeda global kinase panel

Chain of Sigma intracellular receptor 2 (Q5BJF2 whole entry): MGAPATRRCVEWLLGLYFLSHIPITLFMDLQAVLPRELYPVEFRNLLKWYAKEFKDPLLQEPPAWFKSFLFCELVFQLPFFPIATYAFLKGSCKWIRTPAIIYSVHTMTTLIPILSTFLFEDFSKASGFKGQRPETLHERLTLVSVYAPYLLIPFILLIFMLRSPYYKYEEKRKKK
Chain of Mitogen-activated protein kinase 9 (P45984 whole entry): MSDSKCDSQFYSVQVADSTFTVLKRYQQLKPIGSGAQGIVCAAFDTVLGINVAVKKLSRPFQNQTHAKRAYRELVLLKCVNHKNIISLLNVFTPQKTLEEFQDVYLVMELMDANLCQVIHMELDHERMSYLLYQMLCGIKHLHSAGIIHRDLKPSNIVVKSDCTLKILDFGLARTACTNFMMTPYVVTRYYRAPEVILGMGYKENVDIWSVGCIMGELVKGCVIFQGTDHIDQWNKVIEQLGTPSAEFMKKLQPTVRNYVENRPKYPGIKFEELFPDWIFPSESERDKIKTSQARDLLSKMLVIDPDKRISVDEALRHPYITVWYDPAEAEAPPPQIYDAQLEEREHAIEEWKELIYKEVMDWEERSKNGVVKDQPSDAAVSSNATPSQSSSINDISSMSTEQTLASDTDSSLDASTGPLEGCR
Chain of Inhibitor of nuclear factor kappa-B kinase subunit alpha (O15111 whole entry): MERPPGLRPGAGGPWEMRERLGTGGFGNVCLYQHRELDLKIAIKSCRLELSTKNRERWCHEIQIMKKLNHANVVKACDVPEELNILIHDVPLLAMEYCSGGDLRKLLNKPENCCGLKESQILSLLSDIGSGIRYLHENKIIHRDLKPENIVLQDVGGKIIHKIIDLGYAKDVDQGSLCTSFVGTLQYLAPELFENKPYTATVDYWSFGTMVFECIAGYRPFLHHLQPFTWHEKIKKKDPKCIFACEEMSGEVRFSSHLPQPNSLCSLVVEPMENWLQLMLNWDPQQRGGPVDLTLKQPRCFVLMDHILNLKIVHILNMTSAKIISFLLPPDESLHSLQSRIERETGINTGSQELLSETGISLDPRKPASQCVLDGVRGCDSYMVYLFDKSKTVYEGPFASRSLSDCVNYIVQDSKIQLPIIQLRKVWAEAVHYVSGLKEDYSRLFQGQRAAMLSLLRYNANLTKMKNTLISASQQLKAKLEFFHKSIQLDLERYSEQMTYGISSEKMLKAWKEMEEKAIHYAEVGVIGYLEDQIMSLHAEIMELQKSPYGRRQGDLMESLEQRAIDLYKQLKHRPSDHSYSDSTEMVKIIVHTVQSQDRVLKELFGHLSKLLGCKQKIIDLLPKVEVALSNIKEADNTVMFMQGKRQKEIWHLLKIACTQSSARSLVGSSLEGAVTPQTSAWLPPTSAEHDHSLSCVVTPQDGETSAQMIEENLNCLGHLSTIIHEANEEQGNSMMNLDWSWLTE
Chain of Serine/threonine-protein kinase 4 (Q13043 whole entry): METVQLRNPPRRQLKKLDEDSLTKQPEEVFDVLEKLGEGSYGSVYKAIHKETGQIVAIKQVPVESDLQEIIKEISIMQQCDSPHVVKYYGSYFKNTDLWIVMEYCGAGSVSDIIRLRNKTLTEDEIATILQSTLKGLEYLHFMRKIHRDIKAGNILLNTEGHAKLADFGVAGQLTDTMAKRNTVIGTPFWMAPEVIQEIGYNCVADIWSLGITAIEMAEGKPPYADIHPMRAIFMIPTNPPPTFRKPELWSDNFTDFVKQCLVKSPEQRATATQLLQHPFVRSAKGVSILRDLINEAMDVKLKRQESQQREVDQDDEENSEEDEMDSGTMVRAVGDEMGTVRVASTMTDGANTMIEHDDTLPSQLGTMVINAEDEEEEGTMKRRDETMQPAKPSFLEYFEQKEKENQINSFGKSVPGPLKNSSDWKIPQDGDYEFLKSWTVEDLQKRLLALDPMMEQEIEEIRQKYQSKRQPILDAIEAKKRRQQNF
Chain of Serine/threonine-protein kinase Nek3 (P51956 whole entry): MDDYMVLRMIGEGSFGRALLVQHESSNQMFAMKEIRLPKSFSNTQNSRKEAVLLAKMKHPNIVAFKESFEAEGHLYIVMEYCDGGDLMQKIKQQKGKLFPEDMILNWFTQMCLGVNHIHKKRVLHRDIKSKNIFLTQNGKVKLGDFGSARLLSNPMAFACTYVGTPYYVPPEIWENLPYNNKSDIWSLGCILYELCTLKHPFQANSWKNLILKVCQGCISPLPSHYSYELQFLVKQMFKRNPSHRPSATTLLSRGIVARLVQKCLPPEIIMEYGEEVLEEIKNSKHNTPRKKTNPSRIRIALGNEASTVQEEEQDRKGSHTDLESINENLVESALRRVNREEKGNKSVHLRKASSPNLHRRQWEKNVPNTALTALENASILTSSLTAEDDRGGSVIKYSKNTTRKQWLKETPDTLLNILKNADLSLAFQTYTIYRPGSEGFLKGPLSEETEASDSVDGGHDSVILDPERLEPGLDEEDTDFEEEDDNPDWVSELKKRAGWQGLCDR
Chain of Mitotic checkpoint serine/threonine-protein kinase BUB1 (O43683 whole entry): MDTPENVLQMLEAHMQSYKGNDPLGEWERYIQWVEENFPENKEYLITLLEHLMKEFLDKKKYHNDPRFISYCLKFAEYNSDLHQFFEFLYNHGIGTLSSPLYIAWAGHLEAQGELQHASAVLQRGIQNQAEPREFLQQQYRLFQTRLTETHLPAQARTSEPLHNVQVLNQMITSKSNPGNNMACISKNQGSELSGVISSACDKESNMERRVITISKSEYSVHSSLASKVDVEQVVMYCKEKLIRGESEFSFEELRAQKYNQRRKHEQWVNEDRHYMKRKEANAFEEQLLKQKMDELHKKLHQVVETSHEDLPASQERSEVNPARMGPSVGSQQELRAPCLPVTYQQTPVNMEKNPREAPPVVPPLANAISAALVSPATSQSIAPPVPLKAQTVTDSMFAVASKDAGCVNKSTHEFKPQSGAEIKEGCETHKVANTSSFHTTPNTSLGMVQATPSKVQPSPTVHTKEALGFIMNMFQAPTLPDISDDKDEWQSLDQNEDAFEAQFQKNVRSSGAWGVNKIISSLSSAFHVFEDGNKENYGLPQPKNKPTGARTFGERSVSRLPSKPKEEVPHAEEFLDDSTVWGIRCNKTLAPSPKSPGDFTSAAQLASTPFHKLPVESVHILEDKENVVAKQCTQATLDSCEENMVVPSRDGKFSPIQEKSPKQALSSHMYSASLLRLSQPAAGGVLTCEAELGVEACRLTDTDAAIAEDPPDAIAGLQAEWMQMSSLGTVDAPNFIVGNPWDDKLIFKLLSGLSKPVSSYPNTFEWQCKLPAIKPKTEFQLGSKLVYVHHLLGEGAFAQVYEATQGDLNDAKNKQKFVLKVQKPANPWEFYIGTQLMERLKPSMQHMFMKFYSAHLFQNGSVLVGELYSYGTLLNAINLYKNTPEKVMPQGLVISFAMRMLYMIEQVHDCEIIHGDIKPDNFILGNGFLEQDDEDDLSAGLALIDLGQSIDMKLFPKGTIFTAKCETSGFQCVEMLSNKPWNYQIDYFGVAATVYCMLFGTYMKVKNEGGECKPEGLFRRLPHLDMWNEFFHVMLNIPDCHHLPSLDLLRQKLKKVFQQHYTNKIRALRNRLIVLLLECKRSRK
Chain of Serine/threonine-protein kinase ULK2 (Q8IYT8 whole entry): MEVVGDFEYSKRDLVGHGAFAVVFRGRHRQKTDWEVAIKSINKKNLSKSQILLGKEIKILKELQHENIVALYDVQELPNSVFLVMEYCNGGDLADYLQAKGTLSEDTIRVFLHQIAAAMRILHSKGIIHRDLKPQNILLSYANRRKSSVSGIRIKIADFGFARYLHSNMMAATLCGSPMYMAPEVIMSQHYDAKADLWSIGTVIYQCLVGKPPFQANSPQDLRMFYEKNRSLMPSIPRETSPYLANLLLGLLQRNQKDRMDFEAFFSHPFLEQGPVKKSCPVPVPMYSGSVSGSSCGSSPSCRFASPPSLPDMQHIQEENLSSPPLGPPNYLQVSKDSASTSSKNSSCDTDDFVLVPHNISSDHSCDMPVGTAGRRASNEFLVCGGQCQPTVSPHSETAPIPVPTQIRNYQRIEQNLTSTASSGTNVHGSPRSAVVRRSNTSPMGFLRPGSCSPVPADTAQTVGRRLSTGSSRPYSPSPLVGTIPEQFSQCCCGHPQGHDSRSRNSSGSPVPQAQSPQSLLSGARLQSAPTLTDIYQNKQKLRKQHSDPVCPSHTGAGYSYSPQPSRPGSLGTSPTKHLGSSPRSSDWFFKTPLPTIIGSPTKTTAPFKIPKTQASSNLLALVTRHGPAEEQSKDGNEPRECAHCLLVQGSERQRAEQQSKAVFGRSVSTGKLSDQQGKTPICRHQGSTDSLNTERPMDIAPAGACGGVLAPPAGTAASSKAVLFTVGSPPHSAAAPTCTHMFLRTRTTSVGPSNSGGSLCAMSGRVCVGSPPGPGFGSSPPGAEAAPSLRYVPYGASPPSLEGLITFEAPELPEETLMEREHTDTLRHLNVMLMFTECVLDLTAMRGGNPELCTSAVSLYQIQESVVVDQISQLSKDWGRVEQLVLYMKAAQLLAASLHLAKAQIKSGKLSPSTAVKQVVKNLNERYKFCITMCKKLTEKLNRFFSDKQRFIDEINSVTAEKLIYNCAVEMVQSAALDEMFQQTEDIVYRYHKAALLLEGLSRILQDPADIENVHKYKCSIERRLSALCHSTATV
Chain of Adenosine receptor A1 (Homo sapiens) (P30542 whole entry): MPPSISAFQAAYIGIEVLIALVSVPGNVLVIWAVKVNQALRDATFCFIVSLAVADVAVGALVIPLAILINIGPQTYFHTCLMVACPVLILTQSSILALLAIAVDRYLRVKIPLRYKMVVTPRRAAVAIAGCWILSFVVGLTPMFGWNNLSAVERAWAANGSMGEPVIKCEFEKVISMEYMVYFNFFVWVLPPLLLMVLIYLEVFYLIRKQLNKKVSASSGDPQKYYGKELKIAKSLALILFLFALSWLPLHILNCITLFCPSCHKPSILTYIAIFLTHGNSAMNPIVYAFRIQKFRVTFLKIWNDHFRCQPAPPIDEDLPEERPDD

## CN1C(=O)[C@@H](N2CCc3c(nn(Cc4ccccc4)c3Br)C2=O)COc2ccccc21 [TP-030-2]
[1]
  pIC50: 6.00
[2]
  pIC50: 6.00
[3]
  pIC50: 6.00
[4]
  inhibition: -4.12%
[5]
  pIC50: 6.00
[6]
  inhibition: -1%
[7]
  pIC50: 6.00
[8]
  pIC50: 6.00
[9]
  inhibition: -4%
[10]; read-out: Ki
  pKi: 5.46
[10]; read-out: pKi (converted)
  Ki: 3.24 µM
[11]
  inhibition: -2%
[12]
  inhibition: 4%
[13]
  inhibition: 14%
[14]
  inhibition: 7%
[15]
  inhibition: 10%
[16]
  inhibition: 11%
[17]
  inhibition: 8.15%
[18]
  pIC50: 6.00
[19]
  pIC50: 6.00
[20]
  pIC50: 6.00
[21]
  pIC50: 6.00
[22]
  inhibition at 60 min, 10 µM: 42% (not active)
[23]
  pIC50: 6.00
[24]
  inhibition: 12%
[25]
  pIC50: 6.00
[26]
  inhibition: -6%
[27]
  inhibition: -7%
[28]
  pIC50: 6.00
[29]
  pIC50: 6.00
[30]
  pIC50: 6.00
[31]
  pIC50: 6.00
[32]
  pIC50: 6.00
[33]
  pIC50: 6.00
[34]
  pIC50: 6.00
[35]
  pIC50: 6.00
[36]
  pIC50: 6.00
[37]
  pIC50: 6.00
